Source: patent publication US20250171438A1 (Agios Pharmaceuticals, Inc., priority 2022, published 2025)

Biological target: T1, human PAH with the R408W mutation (Homo sapiens, UniProt P00439, R408W)
T1 construct: expressed in transfected cells
T1 sequence (P00439 1-452 R408W): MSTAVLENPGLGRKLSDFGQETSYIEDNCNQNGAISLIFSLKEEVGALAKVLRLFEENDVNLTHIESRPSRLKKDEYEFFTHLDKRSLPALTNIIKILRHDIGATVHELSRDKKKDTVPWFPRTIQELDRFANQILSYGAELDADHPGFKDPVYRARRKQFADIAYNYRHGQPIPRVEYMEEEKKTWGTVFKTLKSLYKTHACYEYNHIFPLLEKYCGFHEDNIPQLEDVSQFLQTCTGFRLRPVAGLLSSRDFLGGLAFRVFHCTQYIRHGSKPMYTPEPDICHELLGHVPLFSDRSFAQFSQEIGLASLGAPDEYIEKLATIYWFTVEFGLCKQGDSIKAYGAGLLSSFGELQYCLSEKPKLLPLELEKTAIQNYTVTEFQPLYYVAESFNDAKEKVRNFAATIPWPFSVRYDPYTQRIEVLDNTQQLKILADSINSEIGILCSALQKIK
Assay: Cell Based Phenylalanine Flux Assay
Details: A375 cells expressing human R408W PAH; 24 hrs with compound; 13C-Tyrosine by LC-MS; average where tested multiple times; read-out: AC50

SMILES	AC50
O=C(Cc1coc(C(F)F)n1)N1CCc2[nH]cnc2C1c1nc2ccccc2s1 (centres unmarked) [listing 1 of 2 here]	> 5 µM
Cc1ncc(CC(=O)N2CCc3[nH]cnc3C2c2nc3ccccc3s2)o1 (centres unmarked)	> 5 µM
O=C(Cc1ccccn1)N1CCc2[nH]cnc2C1c1nc2ccccc2s1 (centres unmarked) [listing 1 of 2 here]	> 5 µM
O=C(Cc1cnn2ccccc12)N1CCc2[nH]cnc2C1c1nc2ccccc2s1 (centres unmarked) [listing 1 of 2 here]	> 5 µM
O=C(Cc1cscn1)N1CCc2[nH]cnc2C1c1nc2ccccc2s1 (centres unmarked)	> 5 µM
O=C(Cc1cncs1)N1CCc2[nH]cnc2C1c1nc2ccccc2s1 (centres unmarked) [listing 1 of 2 here]	> 5 µM
O=C(C1CN(c2ccccn2)C1)N1CCc2[nH]cnc2C1c1nc2ccccc2s1 (centres unmarked) [listing 1 of 2 here]	> 5 µM
CS(=O)(=O)N1CC(C(=O)N2CCc3[nH]cnc3C2c2nc3ccccc3s2)C1 (centres unmarked) [listing 1 of 2 here]	> 5 µM
O=C(c1cnco1)N1CCCc2[nH]cnc2C1c1nc2ccccc2s1 (centres unmarked) [listing 1 of 2 here]	> 5 µM
Cc1nc(CCN2CC(F)C2)oc1C(=O)N1CCc2[nH]cnc2C1c1nc2ccccc2s1 (centres unmarked) [listing 1 of 2 here]	> 5 µM
Cc1nc(CCC2CC2)oc1C(=O)N1CCCc2[nH]cnc2C1c1nc2ccccc2s1 (centres unmarked)	> 5 µM
COCCc1ncc(C(=O)N2CCc3[nH]cnc3C2c2nc3ccccc3s2)o1 (centres unmarked) [listing 1 of 2 here]	> 5 µM
COCc1ncc(C(=O)N2CCc3[nH]cnc3C2c2nc3ccccc3s2)o1 (centres unmarked) [listing 1 of 2 here]	> 5 µM
CS(=O)(=O)c1ncoc1C(=O)N1CCc2[nH]cnc2C1c1nc2ccccc2s1 (centres unmarked) [listing 1 of 2 here]	> 5 µM
Cc1nc(N2CCOCC2)oc1C(=O)N1CCCc2[nH]cnc2C1c1nc2ccccc2s1 (centres unmarked) [listing 1 of 2 here]	> 5 µM
O=C(c1nnc(CCN2CC(F)C2)o1)N1CCc2[nH]cnc2C1c1nc2ccccc2s1 (centres unmarked) [listing 1 of 2 here]	> 5 µM
O=C(c1nnc(CCN2CCOCC2)o1)N1CCc2[nH]cnc2C1c1nc2ccccc2s1 (centres unmarked) [listing 1 of 2 here]	> 5 µM
O=C(c1nnc(-c2ccccn2)o1)N1CCCc2[nH]cnc2C1c1nc2ccccc2s1 (centres unmarked)	> 5 µM
NC(=O)c1ncoc1C(=O)N1CCc2[nH]cnc2C1c1nc2ccccc2s1 (centres unmarked) [listing 1 of 2 here]	> 5 µM
N#Cc1nc(NCC(F)(F)F)oc1C(=O)N1CCc2[nH]cnc2C1c1nc2ccccc2s1 (centres unmarked) [listing 1 of 2 here]	> 5 µM
O=C(c1nnc(CCNC2CC2)o1)N1CCc2[nH]cnc2C1c1nc2ccccc2s1 (centres unmarked) [listing 1 of 2 here]	> 5 µM

SMILES	AC50
CN(C)CCc1nnc(C(=O)N2CCc3[nH]cnc3C2c2nc3ccccc3s2)o1 (centres unmarked) [listing 1 of 2 here]	> 5 µM
Cc1nc(CCCN(C)C)oc1C(=O)N1CCc2[nH]cnc2C1c1nc2ccccc2s1 (centres unmarked) [listing 1 of 2 here]	> 5 µM
CN(C)Cc1nc(C(=O)N2CCc3[nH]cnc3C2c2nc3ccccc3s2)no1 (centres unmarked) [listing 1 of 2 here]	> 5 µM
O=C(Cc1coc(C(F)F)n1)N1CCc2[nH]cnc2C1c1nc2ccccc2s1 (centres unmarked) [listing 2 of 2 here]	1 to 5 µM
O=C(Cc1cnn2ccccc12)N1CCc2[nH]cnc2C1c1nc2ccccc2s1 (centres unmarked) [listing 2 of 2 here]	1 to 5 µM
O=C(Cc1cncs1)N1CCc2[nH]cnc2C1c1nc2ccccc2s1 (centres unmarked) [listing 2 of 2 here]	1 to 5 µM
O=C(Cn1cncn1)N1CCc2[nH]cnc2C1c1nc2ccccc2s1 (centres unmarked)	> 5 µM
O=C(Cc1ccccn1)N1CCc2[nH]cnc2C1c1nc2ccccc2s1 (centres unmarked) [listing 2 of 2 here]	1 to 5 µM
Cc1nnc(CC(=O)N2CCc3[nH]cnc3C2c2nc3ccccc3s2)o1 (centres unmarked)	> 5 µM
O=C(C1CN(c2ccc(Cl)cc2)C1)N1CCc2[nH]cnc2C1c1nc2ccccc2s1 (centres unmarked)	1 to 5 µM
O=C(C1CN(c2ccccn2)C1)N1CCc2[nH]cnc2C1c1nc2ccccc2s1 (centres unmarked) [listing 2 of 2 here]	1 to 5 µM
CS(=O)(=O)N1CC(C(=O)N2CCc3[nH]cnc3C2c2nc3ccccc3s2)C1 (centres unmarked) [listing 2 of 2 here]	1 to 5 µM
O=C(c1cnco1)N1CCCc2[nH]cnc2C1c1nc2ccccc2s1 (centres unmarked) [listing 2 of 2 here]	1 to 5 µM
Cc1nc(CCN2CC(F)C2)oc1C(=O)N1CCc2[nH]cnc2C1c1nc2ccccc2s1 (centres unmarked) [listing 2 of 2 here]	1 to 5 µM
COCCc1ncc(C(=O)N2CCc3[nH]cnc3C2c2nc3ccccc3s2)o1 (centres unmarked) [listing 2 of 2 here]	1 to 5 µM
O=C(c1oc(C=CC2CC2)nc1C(F)(F)F)N1CCCc2[nH]cnc2C1c1nc2ccccc2s1 (centres unmarked)	> 5 µM
Cc1nc(C=CC2CC2)oc1C(=O)N1CCCc2[nH]cnc2C1c1nc2ccccc2s1 (centres unmarked)	> 5 µM
COCc1ncc(C(=O)N2CCc3[nH]cnc3C2c2nc3ccccc3s2)o1 (centres unmarked) [listing 2 of 2 here]	1 to 5 µM
COC1CN(C(=O)N2CCc3[nH]cnc3C2c2nc3ccccc3s2)C1 (centres unmarked)	1 to 5 µM
Cc1noc(C(=O)N2CCc3[nH]cnc3C2c2nc3ccccc3s2)n1 (centres unmarked)	1 to 5 µM
Cc1nc(C(C)(C)O)oc1C(=O)N1CCCc2[nH]cnc2C1c1nc2ccccc2s1 (centres unmarked)	> 5 µM

SMILES	AC50
O=C(c1ocnc1-c1ccccn1)N1CCCc2[nH]cnc2C1c1nc2ccccc2s1 (centres unmarked)	> 5 µM
CS(=O)(=O)c1ncoc1C(=O)N1CCc2[nH]cnc2C1c1nc2ccccc2s1 (centres unmarked) [listing 2 of 2 here]	1 to 5 µM
Cc1nc(CN2CCOCC2)oc1C(=O)N1CCCc2[nH]cnc2C1c1nc2ccccc2s1 (centres unmarked)	> 5 µM
Cc1nc(N2CCOCC2)oc1C(=O)N1CCCc2[nH]cnc2C1c1nc2ccccc2s1 (centres unmarked) [listing 2 of 2 here]	1 to 5 µM
Cc1nc(-c2ccccn2)oc1C(=O)N1CCCc2[nH]cnc2C1c1nc2ccccc2s1 (centres unmarked)	1 to 5 µM
O=C(c1nnc(CCN2CC(F)C2)o1)N1CCc2[nH]cnc2C1c1nc2ccccc2s1 (centres unmarked) [listing 2 of 2 here]	1 to 5 µM
O=C(c1nnc(CCN2CCOCC2)o1)N1CCc2[nH]cnc2C1c1nc2ccccc2s1 (centres unmarked) [listing 2 of 2 here]	1 to 5 µM
O=C(c1nnc(N2CC(F)C2)o1)N1CCc2[nH]cnc2C1c1nc2ccccc2s1 (centres unmarked)	1 to 5 µM
CN1CCN(c2nnc(C(=O)N3CCc4[nH]cnc4C3c3nc4ccccc4s3)o2)CC1 (centres unmarked)	1 to 5 µM
Cc1nc(C(=O)N2CCc3[nH]cnc3C2c2nc3ccccc3s2)no1 (centres unmarked)	> 5 µM
O=C(C1CC1(F)F)N1CCc2[nH]cnc2C1c1nc2c(F)cccc2s1 (centres unmarked)	1 to 5 µM
CC1(C)CN(C(=O)c2cnco2)C(c2nc3c(F)cccc3s2)c2nc[nH]c21 (centres unmarked)	> 5 µM
Cc1ncoc1C(=O)N1CC(C)(C)c2[nH]cnc2C1c1nc2ccccc2s1 (centres unmarked)	> 5 µM
N#Cc1n[nH]cc1C(=O)N1CCc2[nH]cnc2C1c1nc2ccccc2s1 (centres unmarked)	1 to 5 µM
CN(C)CCn1cc(C(=O)N2CCc3[nH]cnc3C2c2nc3ccccc3s2)c(C#N)n1 (centres unmarked)	1 to 5 µM
CN(C)CCn1ncc(C(=O)N2CCc3[nH]cnc3C2c2nc3ccccc3s2)c1C#N (centres unmarked)	> 5 µM
CN(C)Cc1nc(C#N)c(C(=O)N2CCc3[nH]cnc3C2c2nc3ccccc3s2)o1 (centres unmarked)	1 to 5 µM
COCCNc1nnc(C(=O)N2CCc3[nH]cnc3C2c2nc3ccccc3s2)o1 (centres unmarked)	1 to 5 µM
NC(=O)c1ncoc1C(=O)N1CCc2[nH]cnc2C1c1nc2ccccc2s1 (centres unmarked) [listing 2 of 2 here]	1 to 5 µM
N#Cc1nc(NCC(F)(F)F)oc1C(=O)N1CCc2[nH]cnc2C1c1nc2ccccc2s1 (centres unmarked) [listing 2 of 2 here]	1 to 5 µM
Cc1nc(NC2CC2)oc1C(=O)N1CCCc2[nH]cnc2C1c1nc2ccccc2s1 (centres unmarked)	> 5 µM

SMILES	AC50
O=C(c1nnc(CCNC2CC2)o1)N1CCc2[nH]cnc2C1c1nc2ccccc2s1 (centres unmarked) [listing 2 of 2 here]	1 to 5 µM
CN(C)CCc1nnc(C(=O)N2CCc3[nH]cnc3C2c2nc3ccccc3s2)o1 (centres unmarked) [listing 2 of 2 here]	1 to 5 µM
Cc1nc(CCCN(C)C)oc1C(=O)N1CCc2[nH]cnc2C1c1nc2ccccc2s1 (centres unmarked) [listing 2 of 2 here]	1 to 5 µM
CN(C)Cc1nc(C(=O)N2CCc3[nH]cnc3C2c2nc3ccccc3s2)no1 (centres unmarked) [listing 2 of 2 here]	1 to 5 µM
COC(=O)N1CC(C(=O)N2CCc3[nH]cnc3C2c2nc3ccccc3s2)C1 (centres unmarked)	1 to 5 µM
Cc1nc(C(C)(C)O)oc1C(=O)N1CC2(CC2)c2[nH]cnc2C1c1nc2ccccc2s1 (centres unmarked) [listing 1 of 2 here]	> 5 µM
O=C(c1cnco1)N1CC2(CC2)c2[nH]cnc2C1c1nc2ccccc2s1 (centres unmarked) [listing 1 of 2 here]	> 5 µM
Cc1nc(-c2ccccn2)oc1C(=O)N1CC2(CC2)c2[nH]cnc2C1c1nc2ccccc2s1 (centres unmarked)	> 5 µM
COCc1ccc2c(C(=O)N3CC4(CC4)c4[nH]cnc4C3c3nc4ccccc4s3)cnn2c1 (centres unmarked) [listing 1 of 2 here]	> 5 µM
O=C(c1cnco1)N1CC2(CC2)c2[nH]cnc2C1c1nc2c(F)cccc2s1 (centres unmarked) [listing 1 of 2 here]	> 5 µM
Cc1ncoc1C(=O)N1CC2(CC2)c2[nH]cnc2C1c1nc2c(F)cccc2s1 (centres unmarked) [listing 1 of 2 here]	> 5 µM
O=C(c1ocnc1CO)N1CC2(CC2)c2[nH]cnc2C1c1nc2ccccc2s1 (centres unmarked) [listing 1 of 2 here]	> 5 µM
CN(C)Cc1ccc2c(C(=O)N3CC4(CC4)c4[nH]cnc4C3c3nc4ccccc4s3)cnn2c1 (centres unmarked) [listing 1 of 2 here]	> 5 µM
Cc1nc(C(C)(C)O)oc1C(=O)N1CC2(CC2)c2[nH]cnc2C1c1nc2ccccc2s1 (centres unmarked) [listing 2 of 2 here]	1 to 5 µM
O=C(c1cnco1)N1CC2(CC2)c2[nH]cnc2C1c1nc2ccccc2s1 (centres unmarked) [listing 2 of 2 here]	1 to 5 µM
COCc1ccc2c(C(=O)N3CC4(CC4)c4[nH]cnc4C3c3nc4ccccc4s3)cnn2c1 (centres unmarked) [listing 2 of 2 here]	1 to 5 µM
Cc1ncoc1C(=O)N1CC2(CC2)c2[nH]cnc2C1c1nc2c(F)cccc2s1 (centres unmarked) [listing 2 of 2 here]	1 to 5 µM
O=C(c1cnco1)N1CC2(CC2)c2[nH]cnc2C1c1nc2c(F)cccc2s1 (centres unmarked) [listing 2 of 2 here]	1 to 5 µM
O=C(c1ocnc1CO)N1CC2(CC2)c2[nH]cnc2C1c1nc2ccccc2s1 (centres unmarked) [listing 2 of 2 here]	1 to 5 µM
CN(C)Cc1ccc2c(C(=O)N3CC4(CC4)c4[nH]cnc4C3c3nc4ccccc4s3)cnn2c1 (centres unmarked) [listing 2 of 2 here]	1 to 5 µM
